Laboratory results from paper PMC4721062, “Oxadiazole-2-oxides may have other functional targets, in addition to SjTGR, through which they cause mortality in Schistosoma japonicum” (Parasites & Vectors, 2016).
Like-named read-outs stand apart in the source and are kept apart here.

Tests used:
recombinant SjTGR = biological target: T1, recombinant SjTGR (Schistosoma japonicum, UniProt B5THG7); experiment: Inhibition of TrxR activity of recombinant SjTGR (DTNB assay); assay type: biochemical; conditions: 50 nM SjTGR, 1 mM NADPH, 15 min preincubation, DTNB reduction; for IC50: read-out: IC50 of SjTGR
T1 sequence (B5THG7 1-596): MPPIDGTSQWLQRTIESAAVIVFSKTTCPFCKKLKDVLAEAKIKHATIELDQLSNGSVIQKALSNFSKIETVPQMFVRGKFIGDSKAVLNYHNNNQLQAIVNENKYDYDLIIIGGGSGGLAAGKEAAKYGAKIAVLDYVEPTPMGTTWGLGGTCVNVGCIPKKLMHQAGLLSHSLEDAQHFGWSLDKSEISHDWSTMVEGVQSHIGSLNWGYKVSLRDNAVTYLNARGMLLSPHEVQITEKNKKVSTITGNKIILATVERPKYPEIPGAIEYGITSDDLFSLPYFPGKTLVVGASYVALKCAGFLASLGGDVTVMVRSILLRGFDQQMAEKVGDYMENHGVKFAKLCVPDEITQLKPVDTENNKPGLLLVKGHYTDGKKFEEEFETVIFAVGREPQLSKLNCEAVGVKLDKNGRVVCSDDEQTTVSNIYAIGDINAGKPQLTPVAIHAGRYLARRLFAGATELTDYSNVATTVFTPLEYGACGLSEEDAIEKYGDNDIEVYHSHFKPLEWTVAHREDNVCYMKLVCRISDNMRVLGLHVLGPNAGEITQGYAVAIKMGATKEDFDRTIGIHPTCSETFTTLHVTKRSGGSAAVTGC
Experimental: The purified recombinant SjTGR proteins were produced according to the method described by Song et al.. The inhibition of TrxR activity by the recombinant SjTGR was performed as reported by Rai et al.. Briefly, 50 nM SjTGR and 1 mM NADPH were incubated with different concentrations of oxadiazole-2-oxides (2, 4, 6, 10, 20 μM) for 15 min at room temperature. Then, potassium phosphate buffer (pH 7.4) containing 10 mM EDTA, 100 μM NADPH, and 3 mM DTNB was added to start the reaction. The increase of absorbance at 412 nm was monitored during the first 2 min. All assays were done in triplicate.
50 nM SjTGR and 1 mM NADPH were incubated with different concentrations of oxadiazole-2-oxides (2, 4, 6, 10, 20 μM) for 15 min at room temperature. Then, potassium phosphate buffer (pH 7.4) containing 10 mM EDTA, 100 μM NADPH, 3 mM DTNB was added to start the reaction. The increase in absorbance at 412 nm was monitored during the first 2 min. All assays were done in triplicate. Results shown are the mean ± SD (n = 3)

adult S. japonicum = experiment: microbe, parasite or virus in culture; assay type: cell-based
Excerpt: ICR mice (20–22 g), were obtained from the Shanghai Sub-Center of Experimental Animals, Chinese Academy of Sciences. They were maintained at the Department of Experimental Animals, Jiangsu Institute of Parasitic Diseases. To infect each mouse, its abdominal skin was exposed to 50 S. japonica cercariae. All of the mice were executed to collect S. japonica adult worms, through portal vein perfusion, 35 days post-infection. The adult S. japonica collected were washed with RPMI 1640 medium and then kept in RPMI 1640 medium (pH 7.5) with HEPES 20 mM, penicillin (100 IU/mL), streptomycin ([…]) and 10 % fetal bovine serum. Then, two pairs of adult worms were transferred into each well of a 24-well culture plate, with 2 mL of the same medium. The worms were cultured at 37 °C in a humid atmosphere with 5 % CO2.
Adult worms were cultured in a 24-well culture plate for 30–60 min at 37 °C, in a humid atmosphere with 5 % CO2. Then, oxadiazole-2-oxides at different concentrations (10, 25, 50, 100 μM) were added. Equal volumes of RPMI 1640 or DMSO were applied as negative controls, while PZQ was applied as a positive control. The adult worm mobility and parasite survival rates were monitored using an inverted phase contrast microscope, at 24, 48 and 72 h. Parasite death was defined as there being no motor activity during 2 min of continuous observation, and morphological and tegumental alterations. All assays were repeated three times.
^b Data collected by visual examination of worm movement and shape; n.e. […] The data presented are the average of three independent experiments.

juvenile S. japonicum = experiment: microbe, parasite or virus in culture; assay type: cell-based; conditions: for Killing activity 24hr / Killing activity 48hr / Killing activity 72hr: 10 μM
Experimental: Infected Oncomelania hupensis, provided by the Department of Snail Biology, Jiangsu Institute of Parasitic Diseases, were incubated at 25–28 °C, under illumination, for 2 h to hatch S. japonicum cercariae. The cercariae were collected from the water surface with clean cover glass and placed into a centrifuge tube using pre cooled RPMI 1640. Centrifugation was performed for 1 min at 1500 rpm, and then the steps above were repeated. After centrifugation, the supernatant solution was removed. The cercariae at the bottom were washed twice and resuspended with RPMI 1640. Approximately 20–30 cercariae (1 mL of the resuspension medium) were added to one well in a 24-well culture plate. They were incubated overnight at 37 °C with 5 % CO2. The survival rates and number of tails shed were observed under an inverted microscope. Cercariae that had shed their tails were used as juvenile S. japonicum.
20–30 juvenile worms were transferred into each well of a 24-well culture plate, containing 2 mL RPMI 1640 medium, 20 mM HEPES, 100 IU/mL penicillin, […] streptomycin and 10 % fetal bovine serum. Then, oxadiazole-2-oxides (2, 5, 10, and 50 μM), diluted with the RPMI 1640 medium, were added to their allocated wells. The worms in the negative control wells were treated with equal volumes of RPMI 1640 or DMSO and worms treated with AS were observed as positive controls. The juvenile worms’ survival rates were observed under an inverted phase contrast microscope (Leica, Wetzlar, Germany) at 24, 48 and 72 h. Parasite death was defined as an unclear internal structure of the juvenile worms, with incomplete tegument and contents overflowing radially, or unclear internal structure with complete tegument, but having no motor activity during 1 min of continuous observation. All assays were repeated three times.
^b Data collected by visual examination of worm movement and shape; % D = The number of worms dead / The total number of worms observed, and worms dead judged by unclear internal structure of juvenile worms with uncompleted tegument, and contents overflowing radially, or unclear internal structure with complete tegument, but having no motor activity during 1 min of continuous observation. The data presented are the average of three independent experiments.

[1] = Schistosoma japonicum, 24 h, read-out: Mortality of adult worms
[2] = Schistosoma japonicum, adult worms, 50 μM, 72 h, read-out: Killing activity 72hr
[3] = Schistosoma japonicum, adult worms, 100 μM, 24 h, read-out: Killing activity 24hr
[4] = Schistosoma japonicum, adult worms, 100 μM, 48 h, read-out: Killing activity 48hr
[5] = Schistosoma japonicum, adult worms, 100 μM, 72 h, read-out: Killing activity 72hr
[6] = Schistosoma japonicum, juvenile worms, 2 μM, 24 h, read-out: Killing activity 24hr
[7] = Schistosoma japonicum, juvenile worms, 2 μM, 48 h, read-out: Killing activity 48hr
[8] = Schistosoma japonicum, juvenile worms, 2 μM, 72 h, read-out: Killing activity 72hr
[9] = Schistosoma japonicum, juvenile worms, 5 μM, 24 h, read-out: Killing activity 24hr
[10] = Schistosoma japonicum, juvenile worms, 5 μM, 48 h, read-out: Killing activity 48hr
[11] = Schistosoma japonicum, juvenile worms, 5 μM, 72 h, read-out: Killing activity 72hr
[12] = Schistosoma japonicum, juvenile worms, 50 μM, 24 h, read-out: Killing activity 24hr
[13] = Schistosoma japonicum, juvenile worms, 50 μM, 48 h, read-out: Killing activity 48hr
[14] = Schistosoma japonicum, juvenile worms, 50 μM, 72 h, read-out: Killing activity 72hr
[15] = Schistosoma japonicum, 24 h, read-out: Killing activity 24hr
[16] = Schistosoma japonicum, 48 h, read-out: Killing activity 48hr
[17] = Schistosoma japonicum, 72 h, read-out: Killing activity 72hr

Row | Compound | IC50 (recombinant SjTGR) [µM] | mortality at 25 µM (adult S. japonicum; [1]) [%] | killing at 50 µM (adult S. japonicum; [2]) [%] | killing at 100 µM (adult S. japonicum; [3]) [%] | killing at 100 µM (adult S. japonicum; [5]) [%] | Killing activity 24hr (adult S. japonicum; adult worms, 10 μM, 24 h) | Killing activity 48hr (adult S. japonicum; adult worms, 10 μM, 48 h) | Killing activity 72hr (adult S. japonicum; adult worms, 10 μM, 72 h) | killing at 2 µM (juvenile S. japonicum; [6]) [%] | killing at 2 µM (juvenile S. japonicum; [7]) [%] | killing at 2 µM (juvenile S. japonicum; [8]) [%] | killing at 5 µM (juvenile S. japonicum; [9]) [%] | killing at 5 µM (juvenile S. japonicum; [10]) [%] | killing at 5 µM (juvenile S. japonicum; [11]) [%] | killing at 50 µM (juvenile S. japonicum; [12]) [%] | killing at 50 µM (juvenile S. japonicum; [13]) [%] | killing at 50 µM (juvenile S. japonicum; [14]) [%] | Killing activity 24hr (juvenile S. japonicum; juvenile worms, 24 h) [%D] | Killing activity 48hr (juvenile S. japonicum; juvenile worms, 48 h) [%D] | Killing activity 72hr (juvenile S. japonicum; juvenile worms, 72 h) [%D] | other results
1 | N#Cc1c(-c2ccc(OCCCCBr)cc2)no[n+]1[O-] [Compound 14] | 15.5 | > 75 | 100 | 100 | 100 | 33.3%D | 44.4%D | 77.8%D | 21.6 | 31.1 | 35.1 | 26.4 | 33.3 | 38.9 | 46.4 | 66.4 | 80 | 30.4 | 69.6 | 69.6 | killing at 25 µM (adult S. japonicum; Schistosoma japonicum, adult worms, 25 μM, 24 h, read-out: Killing activity 24hr): 75%; killing at 25 µM (adult S. japonicum; Schistosoma japonicum, adult worms, 25 μM, 48 h, read-out: Killing activity 48hr): 87.5%; killing at 25 µM (adult S. japonicum; Schistosoma japonicum, adult worms, 25 μM, 72 h, read-out: Killing activity 72hr): 100%; killing at 50 µM (adult S. japonicum; Schistosoma japonicum, adult worms, 50 μM, 24 h, read-out: Killing activity 24hr): 100%; killing at 50 µM (adult S. japonicum; Schistosoma japonicum, adult worms, 50 μM, 48 h, read-out: Killing activity 48hr): 100%; killing at 100 µM (adult S. japonicum; [4]): 100%
2 | CC(C)CCOc1ccc(-c2no[n+]([O-])c2C#N)cc1 [Compound 18] | > 20 | > 75 | – | – | – | 16.7%D | 16.7%D | 50.0%D | – | – | – | – | – | – | – | – | – | 36.6 | 42.7 | 42.7 | IC50 of SjTGR (recombinant SjTGR): did not inhibit SjTGR; killing at 25 µM (adult S. japonicum; [15]): 75%; killing at 50 µM (adult S. japonicum; [15]): 100%; killing at 100 µM (adult S. japonicum; [15]): 100%; killing at 25 µM (adult S. japonicum; [16]): 87.5%; killing at 50 µM (adult S. japonicum; [16]): 100%; killing at 100 µM (adult S. japonicum; [16]): 100%; killing at 25 µM (adult S. japonicum; [17]): 100%; killing at 50 µM (adult S. japonicum; [17]): 100%; killing at 100 µM (adult S. japonicum; [17]): 100%; mortality at 25 µM (adult S. japonicum; Schistosoma japonicum, 72 h, read-out: Mortality of adult worms): 100%; killing at 2 µM (juvenile S. japonicum; [15]): 24.1%; killing at 5 µM (juvenile S. japonicum; [15]): 33.8%; killing at 50 µM (juvenile S. japonicum; [15]): 52.4%; killing at 2 µM (juvenile S. japonicum; [16]): 29.9%; killing at 5 µM (juvenile S. japonicum; [16]): 40%; killing at 50 µM (juvenile S. japonicum; [16]): 88.1%; killing at 2 µM (juvenile S. japonicum; [17]): 35.6%; killing at 5 µM (juvenile S. japonicum; [17]): 47.5%; killing at 50 µM (juvenile S. japonicum; [17]): 100%
3 | [O-][n+]1onc(-c2ccc(Br)cc2)c1CO [Compound 4c] | 8.6 | – | – | 57.1 | 71.4 | n.e. | n.e. | n.e. | 15 | 20 | 20 | 24.5 | 24.5 | 26.4 | 25.8 | 25.8 | 51.6 | 7.1 | 14.3 | 17.9 | mortality at 100 µM (adult S. japonicum; Schistosoma japonicum, read-out: Mortality of adult worms): 57.1 ± 2.3%; killing at 100 µM (adult S. japonicum; [4]): 71.4%; Killing activity 24hr (adult S. japonicum; adult worms, 25 μM, 24 h): n.e.; Killing activity 48hr (adult S. japonicum; adult worms, 25 μM, 48 h): n.e.; Killing activity 72hr (adult S. japonicum; adult worms, 25 μM, 72 h): n.e.; Killing activity 24hr (adult S. japonicum; adult worms, 50 μM, 24 h): n.e.; Killing activity 48hr (adult S. japonicum; adult worms, 50 μM, 48 h): n.e.; Killing activity 72hr (adult S. japonicum; adult worms, 50 μM, 72 h): n.e.; mortality at 50 µM (juvenile S. japonicum; Schistosoma japonicum, 24 h, read-out: Mortality of juvenile worms): < 30%
4 | N#Cc1c(-c2ccc(COc3cc(=O)oc4ccccc34)cc2)no[n+]1[O-] [Compound 29] | > 20 | – | 16.7 | – | 66.7 | n.e. | n.e. | n.e. | 30 | 30 | 30 | 30 | 32.5 | 40 | 42.3 | 51.9 | 75 | 30.2 | 31.7 | 65.1 | IC50 of SjTGR (recombinant SjTGR): did not inhibit; Killing activity 24hr (adult S. japonicum; adult worms, 25 μM, 24 h): n.e.; Killing activity 48hr (adult S. japonicum; adult worms, 25 μM, 48 h): n.e.; Killing activity 72hr (adult S. japonicum; adult worms, 25 μM, 72 h): sluggish; Killing activity 24hr (adult S. japonicum; adult worms, 50 μM, 24 h): n.e.; Killing activity 48hr (adult S. japonicum; adult worms, 50 μM, 48 h): sluggish; Killing activity 24hr (adult S. japonicum; adult worms, 100 μM, 24 h): n.e.; Mortality of adult worms (adult S. japonicum; adult worms, 100 μM, 24 h): did not cause death; Killing activity 48hr (adult S. japonicum; adult worms, 100 μM, 48 h): sluggish
